Test results reported in patent US20020165149A1, “Mutated class II major histocompatibility proteins” (priority 2000, published 2002).
Where two headings read alike, the source gives them in different places. No end group written: not given here. *: point of attachment. Biotin = O=C1N[C@H]2[C@H](CS[C@H]2CCCCC(=O)*)N1

Legend:
I-A^g7 = assay: Direct binding of biotinylated peptide to L-cells transfected with I-A^g7 (flow cytometry); parameters: species or system murine; details: 3 hours at 37° C., pH 6; streptavidin-PE detection
Sequence of I-A^g7 (as listed by the source): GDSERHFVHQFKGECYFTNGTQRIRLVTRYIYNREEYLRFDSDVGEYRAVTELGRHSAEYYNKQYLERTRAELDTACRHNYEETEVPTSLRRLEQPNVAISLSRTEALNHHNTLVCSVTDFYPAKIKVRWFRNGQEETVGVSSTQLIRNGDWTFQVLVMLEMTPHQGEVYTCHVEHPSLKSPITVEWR
Sequence of I-A^g7 (P04228 24-256): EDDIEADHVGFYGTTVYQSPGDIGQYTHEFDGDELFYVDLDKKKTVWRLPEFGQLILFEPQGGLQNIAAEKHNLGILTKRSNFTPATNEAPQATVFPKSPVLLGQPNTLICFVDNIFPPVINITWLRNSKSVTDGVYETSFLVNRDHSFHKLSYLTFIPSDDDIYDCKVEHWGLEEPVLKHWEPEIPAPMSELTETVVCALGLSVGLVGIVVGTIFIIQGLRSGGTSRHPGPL

I-A^g7-negative L-cells = details: peptide 1.6 μM-50 μM, 3 hours at 37° C., pH 6
Method: FIG. 13 is a binding curve showing I-A^g7-positive L-cell binding to titrated amounts of B-1040-63 peptide (1.6 μM-50 μM).

## Biotin-RTRPLWVRME [Mut B-1040-63]
I-A^g7
  binding to L cells transfected with IA^g7: bind specifically
I-A^g7-negative L-cells
  binding to untransfected (I-A^g7-negative) L cells: does not bind
I-A^g7-negative L-cells; listed as B-104-63
  binding to untransfected (I-A^g7-negative) L cells: does not occur
